Earlier results as cited in patent US11291658B2, “Use of gaboxadol in the treatment of diabetes and related conditions” (Ovid Therapeutics Inc., priority 2017, dated 2022).

Legend:
[1] = treatment of insomnia, three-month efficacy study
[2] = test system: streptozotocin-induced diabetic rats with moderate to severe hyperglycemia; settings: Gomez et al. 1999
[3] = patients with a history of drug abuse who received gaboxadol

Structure (SMILES): Oc1noc2c1CCNC2 [gaboxadol, 4,5,6,7-tetrahydroisoxazolo [5,4-c]pyridine-3-ol]
- effects in sleep onset and sleep maintenance [1]: failed to show significant effects
- hypoglycemic effect [2]: very mild and could only be seen in the moderately hyperglycemic rats
- psychiatric adverse events [3]: steep increase in psychiatric adverse events
